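Dose response: 5 concentrations. Exposure: 48 h. Format: 96-well plates. Endpoint: linear interpolation; highest concentration if not reached. GI50 is the concentration that inhibits growth by half. At the TGI there is no net growth.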
What was measured:
Experiment in all cases: DTP human tumour cell line panel, 48 h
[1] = system: NCI/ADR-RES ovarian
[2] = system: HCC-2998 colon
[3] = system: HT29 colon
[4] = system: HOP-92 NSCLC
[5] = system: SF-295 CNS
[6] = system: MCF7 breast
[7] = system: SK-OV-3 ovarian
[8] = system: OVCAR-4 ovarian
[9] = system: MDA-MB-231 breast
[10] = system: T-47D breast

SMILES: CNC(=O)OCc1nc(SC2CCCCO2)n(C)c1COC(=O)NC (stereo unspecified)
- TGI [1]: > 100 µM
- TGI [2]: > 100 µM
- TGI [3]: > 100 µM
- TGI [4]: > 100 µM
- TGI [5]: > 100 µM
- TGI [6]: > 100 µM
- TGI [7]: > 100 µM
- TGI [8]: > 100 µM

SMILES: COc1ccc2c(c1)C(O)(C(F)(F)F)c1cc(C(=O)C(F)(F)F)c3ccccc3c1N2 (stereo unspecified)
- TGI [2]: 24.3 µM
- TGI [3]: 20.3 µM
- TGI [4]: 29.6 µM
- TGI [5]: 26.5 µM
- TGI [7]: 31.6 µM
- TGI [8]: 22.4 µM

SMILES: COC(=O)c1csnn1
- TGI [2]: > 100 µM
- TGI [3]: > 100 µM
- TGI [5]: > 100 µM
- TGI [7]: > 100 µM

SMILES: C[N+](C)(C)CC(=O)N/N=C(/Cc1nc2c3c(ccc2[nH]c1=O)C(=O)c1ccccc1C3=O)C(=O)Nc1ccc(Cl)c(Cl)c1
- TGI [2]: > 100 µM
- TGI [3]: > 100 µM
- TGI [4]: 99.8 µM
- TGI [5]: > 100 µM
- TGI [7]: > 100 µM
- TGI [8]: > 100 µM

SMILES: CCOC(=O)C1=C(C)N(Cc2ccccc2)C(C)=C(C(=O)OCC)C1c1ccccc1O
- TGI [2]: > 100 µM
- TGI [3]: > 100 µM
- TGI [4]: 50.6 µM
- TGI [5]: > 100 µM
- TGI [7]: > 100 µM
- TGI [8]: > 100 µM

SMILES: CC(C)(C)OC(=O)C#CC[C@H]1CCCC1/C=C/C(O)=C1/C(=O)NC(CCCNC(=O)OC(C)(C)C)C1=O (stereo partly specified)
- TGI [2]: > 100 µM
- TGI [3]: > 100 µM
- TGI [4]: 59 µM
- TGI [5]: > 100 µM
- TGI [7]: > 100 µM
- TGI [8]: 94.1 µM

SMILES: COc1cc(/C=C2\C(=O)N(C(=O)Cc3ccccc3)N=C2C)ccc1O
- TGI [2]: > 100 µM
- TGI [5]: > 100 µM
- TGI [8]: > 100 µM

SMILES: CC(C)C(=O)Nc1nc2nc[nH]c2c(=O)[nH]1
- TGI [2]: > 100 µM
- TGI [3]: > 100 µM
- TGI [4]: > 100 µM
- TGI [5]: > 100 µM
- TGI [7]: > 100 µM
- TGI [8]: > 100 µM

SMILES: COC(=O)[C@@H](C)C[C@H](Cc1ccccc1)NC(=O)c1nc([C@@H](C[C@H](C(C)C)N(C)C(=O)[C@@H](NC(=O)[C@H]2CCCCN2C)C(C)C)OC(C)=O)sc1C
- GI50 [1]: 0.0521 µM
- TGI [1]: > 16.7 µM
- GI50 [2]: < 0.00167 µM
- TGI [2]: > 16.7 µM
- GI50 [3]: < 0.00167 µM
- TGI [3]: 0.088 µM
- GI50 [4]: 0.00323 µM
- TGI [4]: 16.5 µM
- GI50 [5]: < 0.00167 µM
- TGI [5]: > 16.7 µM
- GI50 [6]: < 0.00167 µM
- TGI [6]: > 16.7 µM
- GI50 [7]: < 0.00167 µM
- TGI [7]: > 16.7 µM
- GI50 [8]: 0.0179 µM
- TGI [8]: > 16.7 µM
- GI50 [9]: < 0.00167 µM
- TGI [9]: 0.441 µM

SMILES: COC(=O)CCC1CCc2c(OC)ccc(O)c2C1=O (stereo unspecified)
- TGI [2]: > 100 µM
- TGI [3]: > 100 µM
- TGI [5]: > 100 µM
- TGI [7]: > 100 µM
- TGI [8]: > 100 µM

SMILES: Cc1ccc(C(=O)O/N=C2/CCC/C2=C\c2ccccc2)cc1
- TGI [2]: > 100 µM
- TGI [3]: > 100 µM
- TGI [4]: > 100 µM
- TGI [5]: > 100 µM
- TGI [7]: > 100 µM
- TGI [8]: > 100 µM

SMILES: N#CC(C(=O)/C(=N/NC(=O)c1ccccc1O)C(C#N)c1ccc(Cl)cc1)c1ccc(Cl)cc1 (stereo unspecified)
- TGI [3]: 24.6 µM
- TGI [5]: 29.9 µM
- TGI [7]: 90.5 µM
- TGI [8]: 33.9 µM

SMILES: Cc1ccncc1.[O]=[Ge].[O]=[Ge].[O]=[Ge].[O]=[Ge].[O]=[Ge].[O]=[Ge][OH].[O]=[Ge][OH]
- GI50 [2]: > 100 µM
- TGI [2]: > 100 µM
- GI50 [3]: > 100 µM
- TGI [3]: > 100 µM
- GI50 [4]: > 100 µM
- TGI [4]: > 100 µM
- GI50 [5]: > 100 µM
- TGI [5]: > 100 µM
- GI50 [8]: > 100 µM
- TGI [8]: > 100 µM

SMILES: CCCCCCCCCCCCOC(=S)NCCCC
- TGI [2]: 34 µM
- TGI [3]: 38.1 µM
- TGI [4]: 46.9 µM
- TGI [5]: > 100 µM
- TGI [7]: 71.1 µM
- TGI [8]: 99.7 µM

SMILES: O=C([O-])c1ccccc1Nc1ccccn1.O=C([O-])c1ccccc1Nc1ccccn1.[Ni+2]
- GI50 [2]: > 100 µM
- TGI [2]: > 100 µM
- GI50 [3]: > 100 µM
- TGI [3]: > 100 µM
- GI50 [4]: 37.1 µM
- TGI [4]: 92.8 µM
- GI50 [5]: > 100 µM
- TGI [5]: > 100 µM
- GI50 [7]: > 100 µM
- TGI [7]: > 100 µM
- GI50 [8]: > 100 µM
- TGI [8]: > 100 µM

SMILES: COc1ccccc1NC(=O)C1=C(C)NC(C)=C(C(=O)Nc2ccccc2OC)C1c1ccccc1F
- TGI [2]: > 100 µM
- TGI [3]: > 100 µM
- TGI [4]: > 100 µM
- TGI [5]: > 100 µM
- TGI [7]: > 100 µM
- TGI [8]: > 100 µM

SMILES: CN(C(=O)C12C3C4C5C3C1(C(=O)O)C5C42)C(C)(C)C (stereo unspecified)
- TGI [2]: > 100 µM
- TGI [3]: > 100 µM
- TGI [4]: > 100 µM
- TGI [5]: > 100 µM
- TGI [7]: > 100 µM
- TGI [8]: > 100 µM

SMILES: C=C1C(=O)O[C@H]2[C@H]1CC/C(COC(=O)NCc1ccccc1OC)=C\CC[C@@]1(C)O[C@@H]21
- GI50 [1]: 2.26 µM
- TGI [1]: 6.12 µM
- GI50 [10]: 2.01 µM
- TGI [10]: 5.7 µM
- GI50 [2]: 1.82 µM
- TGI [2]: 3.52 µM
- GI50 [3]: 1.22 µM
- TGI [3]: 3.43 µM
- GI50 [4]: 1.49 µM
- TGI [4]: 3.72 µM
- GI50 [5]: 5.02 µM
- TGI [5]: 18.8 µM
- GI50 [7]: 13.5 µM
- TGI [7]: 26.8 µM
- GI50 [8]: 1.78 µM
- TGI [8]: 4.92 µM
- GI50 [9]: 1.47 µM
- TGI [9]: 3.49 µM

SMILES: CCCc1[nH]nc(CCC(=O)N(Cc2ccccc2)Cc2ccccc2)c1CC
- TGI [2]: > 100 µM
- TGI [3]: > 100 µM
- TGI [5]: > 100 µM
- TGI [7]: > 100 µM
- TGI [8]: > 100 µM

Reference: PubChem BioAssay (NCI)
